{"source": "the supplement of paper PMC11208160", "data": [{"experiment": "recombinant barcode read abundance after kanamycin selection (control-corrected) (log10(CPM+1)); higher = more efficient recombination; sequences stand for … in AGTGCAGAGAAAATCGGCCAGTTTTCTCTGCCTGCAGTCCGCATGCCGT…AGATTTATGCAGCGGACTGCCTTTCTCCCAAAGTGATAAACCGGACAGTATCATGGACCGGTTTTCCCGGTAATCCGTATTTGCAAGGTTGGTTTCACT; site = the 11-nt target", "summary_of_the_method": "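Two replicates per condition were plated: chloramphenicol/ampicillin LB agar for the control, and chloramphenicol/ampicillin/kanamycin with 0.1 mM IPTG for selection. The pooled E. coli screen behind them paired targets with IS621 bridge RNA target-binding loops. Recombination efficiency is expressed from averaged, control-corrected barcode counts per million at recombinant junctions, as log10(CPM+1).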", "values": [{"sequence": "CCAGGGACTTGGGTTCTAACCTGTTGCCT (site CCAGGGACTAG)", "recombinant barcode read abundance (log10)": 1.31}, {"sequence": "GACGGCACTTGGGTTCTAACCTGTTGCCT (site GACGGCACTAG)", "recombinant barcode read abundance (log10)": 0.567}, {"sequence": "CAACGACCTTGGGTTCTAACCTGTTGCCT (site CAACGACCTAG)", "recombinant barcode read abundance (log10)": 1.75}, {"sequence": "CGAGCTCCTTGGGTTCTAACCTGTTGCCT (site CGAGCTCCTAG)", "recombinant barcode read abundance (log10)": 1.24}, {"sequence": "TAGTACCCTTGGGTTCTAACCTGTTGCAG (site TAGTACCCTGT)", "recombinant barcode read abundance (log10)": 0.152}, {"sequence": "GATACGACTTGGGTTCTAACCTGTTGCCT (site GATACGACTAG)", "recombinant barcode read abundance (log10)": 1.14}, {"sequence": "TAGCCTACTTGGGTTCTAACCTGTTGCGT (site TAGCCTACTCC)", "recombinant barcode read abundance (log10)": 0.0265}, {"sequence": "AATGTATCTTGGGTTCTAACCTGTTGCCT (site AATGCATCTAG)", "recombinant barcode read abundance (log10)": 0.0382}, {"sequence": "TACGAATCTTGGGTTCTAACCTGTTGCCT (site TACGAATCTAG)", "recombinant barcode read abundance (log10)": 0.881}, {"sequence": "GTGTGGCCTTGGGTTCTAACCTGTTGCCA (site TCCGATACTAC)", "recombinant barcode read abundance (log10)": 0}, {"sequence": "CCTATAGCTTGGGTTCTAACCTGTTGCTT (site GAGTCTACTTG)", "recombinant barcode read abundance (log10)": 0.0203}, {"sequence": "ACGATAACTTGGGTTCTAACCTGTTGCCA (site ACGATAACTTG)", "recombinant barcode read abundance (log10)": 0.215}, {"sequence": "TGATCCTCTTGGGTTCTAACCTGTTGCTA (site TGATCCTCTTA)", "recombinant barcode read abundance (log10)": 0.513}, {"sequence": "GACTTGGCTTGGGTTCTAACCTGTTGCCT (site GACTTGTCTAG)", "recombinant barcode read abundance (log10)": 0.124}, {"sequence": "GTCTAATCTTGGGTTCTAACCTGTTGCCT (site GTCTTATCTAG)", "recombinant barcode read abundance (log10)": 0.0315}, {"sequence": "CAACGAGCTTGGGTTCTAACCTGTTGCCG (site CATCGAGCTCG)", "recombinant barcode read abundance (log10)": 0.218}, {"sequence": "GCTCTCCCTTGGGTTCTAACCTGTTGCCT (site GCGCTCCCTAG)", "recombinant barcode read abundance (log10)": 0.253}, {"sequence": "TGTCTGTCTTGGGTTCTAACCTGTTGCTT (site TGTCTGTCTTA)", "recombinant barcode read abundance (log10)": 0.0372}, {"sequence": "ATAAAGACTTGGGTTCTAACCTGTTGCCT (site ATGAAGACTAG)", "recombinant barcode read abundance (log10)": 0.212}, {"sequence": "GGACAGTCTTGGGTTCTAACCTGTTGCGT (site CCGGTCCCTCT)", "recombinant barcode read abundance (log10)": 0.485}, {"sequence": "CTAATATCTTGGGTTCTAACCTGTTGCAT (site AATGGTCCTTG)", "recombinant barcode read abundance (log10)": 0.105}, {"sequence": "TCAGCATCTTGGGTTCTAACCTGTTGCCT (site TCAGTATCTAG)", "recombinant barcode read abundance (log10)": 0.0947}, {"sequence": "TCTAAGTCTTGGGTTCTAACCTGTTGCCT (site TCTAAGTCTCG)", "recombinant barcode read abundance (log10)": 0.132}, {"sequence": "GCCAAACCTTGGGTTCTAACCTGTTGCTA (site GCCAAACCTTA)", "recombinant barcode read abundance (log10)": 0.0929}, {"sequence": "CGCTTGTCTTGGGTTCTAACCTGTTGCTT (site CGCTTGTCTAA)", "recombinant barcode read abundance (log10)": 0.0711}, {"sequence": "ATGGGTCCTTGGGTTCTAACCTGTTGCCT (site ATTGGTCCTAG)", "recombinant barcode read abundance (log10)": 0.356}, {"sequence": "TAGCACCCTTGGGTTCTAACCTGTTGCCA (site TAGCACCCTAG)", "recombinant barcode read abundance (log10)": 0.394}, {"sequence": "GATTATTCTTGGGTTCTAACCTGTTGCCT (site GACTATTCTAG)", "recombinant barcode read abundance (log10)": 0.0521}, {"sequence": "GAGGGTACTTGGGTTCTAACCTGTTGCCT (site GAGGGTACTAG)", "recombinant barcode read abundance (log10)": 1.76}, {"sequence": "GGAGATTCTTGGGTTCTAACCTGTTGCCT (site GGAGATTCTAG)", "recombinant barcode read abundance (log10)": 2.22}, {"sequence": "TAGCACCCTTGGGTTCTAACCTGTTGCCT (site TAGCACCCTTG)", "recombinant barcode read abundance (log10)": 0.144}, {"sequence": "CCGTGGACTTGGGTTCTAACCTGTTGCCA (site CAGGGGACTTG)", "recombinant barcode read abundance (log10)": 0.111}, {"sequence": "CTCCATTCTTGGGTTCTAACCTGTTGCAT (site CTCGATTCTAT)", "recombinant barcode read abundance (log10)": 0.123}, {"sequence": "AGTATATCTTGGGTTCTAACCTGTTGCCT (site GGCATATCTAG)", "recombinant barcode read abundance (log10)": 0.171}, {"sequence": "AGGTATGCTTGGGTTCTAACCTGTTGCCT (site AGGTGTGCTAG)", "recombinant barcode read abundance (log10)": 0.51}, {"sequence": "GAGTGAGCTTGGGTTCTAACCTGTTGCGT (site GAGCGATCTAC)", "recombinant barcode read abundance (log10)": 0.689}, {"sequence": "TGTAATTCTTGGGTTCTAACCTGTTGCCT (site TGTAATCCTAG)", "recombinant barcode read abundance (log10)": 0.0849}, {"sequence": "ATCACTACTTGGGTTCTAACCTGTTGCCT (site ATCACTACTAG)", "recombinant barcode read abundance (log10)": 0.207}, {"sequence": "CCAAGGGCTTGGGTTCTAACCTGTTGCAG (site CCAAGGGCTCT)", "recombinant barcode read abundance (log10)": 2.13}, {"sequence": "AGTATCCCTTGGGTTCTAACCTGTTGCCG (site GTCTCATCTAT)", "recombinant barcode read abundance (log10)": 0.2}, {"sequence": "CTAGGATCTTGGGTTCTAACCTGTTGCCA (site CTAGGATCTTG)", "recombinant barcode read abundance (log10)": 0.24}, {"sequence": "TAGCCTACTTGGGTTCTAACCTGTTGCGA (site TAGCCTACTTC)", "recombinant barcode read abundance (log10)": 1.2}, {"sequence": "CTATATGCTTGGGTTCTAACCTGTTGCTT (site TAGACCACTGT)", "recombinant barcode read abundance (log10)": 0.449}, {"sequence": "TAACGTACTTGGGTTCTAACCTGTTGCTT (site TAAGGTACTAA)", "recombinant barcode read abundance (log10)": 0.109}, {"sequence": "TAGGTACCTTGGGTTCTAACCTGTTGCAT (site TAGGTGCCTAT)", "recombinant barcode read abundance (log10)": 0.0753}, {"sequence": "ACGTCCACTTGGGTTCTAACCTGTTGCCA (site ACGTCCACTTG)", "recombinant barcode read abundance (log10)": 0.148}, {"sequence": "AGCCTTGCTTGGGTTCTAACCTGTTGCCT (site AGCCTTGCTAG)", "recombinant barcode read abundance (log10)": 0.7}, {"sequence": "CGTCAGACTTGGGTTCTAACCTGTTGCCT (site CGTTAGACTAG)", "recombinant barcode read abundance (log10)": 0}, {"sequence": "GCCTGCCCTTGGGTTCTAACCTGTTGCTG (site GCCTGCCCTCA)", "recombinant barcode read abundance (log10)": 1.51}, {"sequence": "CTTAGGACTTGGGTTCTAACCTGTTGCCG (site CTTAGGACTAG)", "recombinant barcode read abundance (log10)": 0.235}, {"sequence": "ATGACTACTTGGGTTCTAACCTGTTGCTA (site ATGACTACTTA)", "recombinant barcode read abundance (log10)": 0.456}, {"sequence": "TTCTACACTTGGGTTCTAACCTGTTGCAT (site TTCTACACTAT)", "recombinant barcode read abundance (log10)": 0.298}, {"sequence": "GCAATTACTTGGGTTCTAACCTGTTGCTT (site GCAATTACTAA)", "recombinant barcode read abundance (log10)": 0.0238}, {"sequence": "TCATCCGCTTGGGTTCTAACCTGTTGCCT (site TCATCCGCTAG)", "recombinant barcode read abundance (log10)": 1.05}, {"sequence": "GAAGTGCCTTGGGTTCTAACCTGTTGCCT (site GAAGGGCCTAG)", "recombinant barcode read abundance (log10)": 0.195}, {"sequence": "GCCGAGCCTTGGGTTCTAACCTGTTGCCA (site GCCGAGCCTTG)", "recombinant barcode read abundance (log10)": 0.21}, {"sequence": "TAGCCTACTTGGGTTCTAACCTGTTGCGA (site TAGCCTACTGC)", "recombinant barcode read abundance (log10)": 0.00843}, {"sequence": "GCACGCCCTTGGGTTCTAACCTGTTGCTT (site GCGCGGCCTAA)", "recombinant barcode read abundance (log10)": 0.181}, {"sequence": "GTGAGCACTTGGGTTCTAACCTGTTGCTA (site AATTAGCCTAG)", "recombinant barcode read abundance (log10)": 0.0422}, {"sequence": "GAGCAGACTTGGGTTCTAACCTGTTGCCT (site GAGCCGACTAG)", "recombinant barcode read abundance (log10)": 0.146}, {"sequence": "GTATGTGCTTGGGTTCTAACCTGTTGCGG (site GTATGTGCTCC)", "recombinant barcode read abundance (log10)": 2.84}, {"sequence": "GTCCGTCCTTGGGTTCTAACCTGTTGCGT (site GTCCGTCCTAT)", "recombinant barcode read abundance (log10)": 0.504}, {"sequence": "AACCGCCCTTGGGTTCTAACCTGTTGCGT (site AACCGCCCTAG)", "recombinant barcode read abundance (log10)": 0.434}, {"sequence": "CTCTCGCCTTGGGTTCTAACCTGTTGCCT (site CTCTCGCCTAG)", "recombinant barcode read abundance (log10)": 0.168}, {"sequence": "TAGGATTCTTGGGTTCTAACCTGTTGCGT (site TAGGATGCTAC)", "recombinant barcode read abundance (log10)": 0.144}, {"sequence": "AGTTGTCCTTGGGTTCTAACCTGTTGCTT (site AGTTGTCCTAG)", "recombinant barcode read abundance (log10)": 0.0387}, {"sequence": "ATACGGACTTGGGTTCTAACCTGTTGCTA (site ATATGGACTTA)", "recombinant barcode read abundance (log10)": 0.0991}, {"sequence": "CCAGTTACTTGGGTTCTAACCTGTTGCCT (site CCAGTAACTAG)", "recombinant barcode read abundance (log10)": 0.104}, {"sequence": "CTCCATTCTTGGGTTCTAACCTGTTGCAT (site CTCTATTCTAT)", "recombinant barcode read abundance (log10)": 0.34}, {"sequence": "GGGTCCACTTGGGTTCTAACCTGTTGCTT (site GGGTCCACTAA)", "recombinant barcode read abundance (log10)": 1.51}, {"sequence": "ATTTCCACTTGGGTTCTAACCTGTTGCCT (site ATTTCCACTAG)", "recombinant barcode read abundance (log10)": 0.433}, {"sequence": "AGCCTATCTTGGGTTCTAACCTGTTGCCA (site AGCCTATCTTG)", "recombinant barcode read abundance (log10)": 0.101}, {"sequence": "TGAGTGCCTTGGGTTCTAACCTGTTGCTT (site TGAGTCCCTAA)", "recombinant barcode read abundance (log10)": 0.116}, {"sequence": "TATTCACCTTGGGTTCTAACCTGTTGCCT (site CATTCACCTAG)", "recombinant barcode read abundance (log10)": 0.0903}, {"sequence": "TTCAAGCCTTGGGTTCTAACCTGTTGCGG (site TTCAAGCCTCC)", "recombinant barcode read abundance (log10)": 1.15}, {"sequence": "AGCAGAGCTTGGGTTCTAACCTGTTGCAG (site AGCAGAGCTCC)", "recombinant barcode read abundance (log10)": 0.224}, {"sequence": "AATATGCCTTGGGTTCTAACCTGTTGCCT (site AATATGCCTAG)", "recombinant barcode read abundance (log10)": 0.582}, {"sequence": "CTAAGCTCTTGGGTTCTAACCTGTTGCTA (site CTAAGCTCTCA)", "recombinant barcode read abundance (log10)": 0.0617}, {"sequence": "ATGAAGACTTGGGTTCTAACCTGTTGCCT (site ATGAAGACTAG)", "recombinant barcode read abundance (log10)": 2.13}, {"sequence": "TATTCTCCTTGGGTTCTAACCTGTTGCCT (site TATTCTCCTAG)", "recombinant barcode read abundance (log10)": 0.0657}, {"sequence": "CTCCTCTCTTGGGTTCTAACCTGTTGCCT (site CTCCTCTCTAG)", "recombinant barcode read abundance (log10)": 2.05}, {"sequence": "TTACGTGCTTGGGTTCTAACCTGTTGCGG (site TTACGTGCTCC)", "recombinant barcode read abundance (log10)": 2.4}, {"sequence": "TCTATCCCTTGGGTTCTAACCTGTTGCCT (site TCCATCCCTAG)", "recombinant barcode read abundance (log10)": 0.105}, {"sequence": "ACGATACCTTGGGTTCTAACCTGTTGCCT (site ACGTTACCTAG)", "recombinant barcode read abundance (log10)": 0.0943}, {"sequence": "ATCTAGGCTTGGGTTCTAACCTGTTGCCG (site CATAGATCTAT)", "recombinant barcode read abundance (log10)": 0.099}, {"sequence": "TGGAACACTTGGGTTCTAACCTGTTGCCT (site TGGATCACTAG)", "recombinant barcode read abundance (log10)": 0.119}]}]}
